Measured values reported in US12428401B2, “Salt of an aminopyridine derivative compound, a crystalline form thereof, and a process for preparing the same” (Yuhan Corporation, priority 2017, dated 2025).
Where “and” joins values, the source holds several entries; their conditions need not be identical. Equal values may be shown once. Where a name gives a salt, the structure may show the parent alone. Read-outs that look alike come from different tables or passages of the source.

Tests used:
[1] = Pharmacokinetic comparison test in rats treated with esomeprazole; type: in vivo, rats (SD rats)
Description: (§1) Specifically, the maximum plasma concentration (Cmax) and the area under the plasma concentration curve (AUClast) in the normal rats and the rats treated with esomeprazole were compared to evaluate the absorption of the drugs in the actual animals.
(§2) In order to compare the pharmacokinetic parameters, 8-week old male rats (SD rats) with a body weight of about 250 g were used as test animals.
A comparison of the pharmacokinetic parameters (i.e., the maximum plasma concentration and the area under the plasma concentration curve) calculated therefrom are shown in Table 7 and FIGS. 12 and 13.

[2] = Pharmacokinetic comparison test in normal rats; type: in vivo, rats (SD rats)
Description: as §1, §2

[3] = Pharmacokinetic comparison test in beagle dogs; type: in vivo
Description: A comparison of the pharmacokinetic parameters (i.e., the maximum plasma concentration and the area under the plasma concentration curve) calculated therefrom are shown in Table 8 and FIG. 14.

[4] = Stability test under stress conditions (PXRD, DSC, appearance, HPLC); conditions: for DSC onset / Water content / Appearance (color) / Content / Purity / Content Change / Purity Change / Water content Change: stress conditions; for Content / Purity: HPLC; for Content Change / Purity Change / Water content Change: start to 4 weeks
[5] = accelerated conditions; for Content / Purity: HPLC; for Content Change / Purity Change / Water content Change: start to 6 months
Description: The five compounds were tested for stability under stress conditions and accelerated conditions.

[6] = Rats treated with esomeprazole (i.v. 5 mg/2 mL/kg for 3 days), oral 30 mg/5 ml/kg
[7] = esomeprazole-treated vs normal rats, listed as Comparative Example 1

C=CC(=O)Nc1cc(Nc2nccc(-n3cc(CN(C)C)c(-c4ccccc4)n3)n2)c(OC)cc1N1CCOCC1 [C. Ex. 1, N-(5-(4-(4-((dimethylamino)methyl)-3-phenyl-1H-pyrazol-1-yl)pyrimidine-2-ylamino)-4-methoxy-2-morpholinophenyl)acrylamide]
Area under the plasma concentration curve (AUClast) [1, 6]: 2636.7 ng·h/mL | Maximum plasma concentration (Cmax) [1, 6]: 223.0 ng/mL | Area under the plasma concentration curve reduced in the esomeprazole-treated rats as compared with the normal rats [1, 7]: 63.8% | Maximum plasma concentration reduced in the esomeprazole-treated rats as compared with the normal rats [1, 7]: 69.3% | Area under the plasma concentration curve lower than that of the mesylate salt form (Example 1) ([1]; rats treated with esomeprazole): 49.4% | Maximum plasma concentration lower than that of the mesylate salt form (Example 1) ([1]; rats treated with esomeprazole): 47.8% | Area under the plasma concentration curve lower than that of the mesylate salt form (Example 1) ([2]; normal rats): 10.4% | Maximum plasma concentration lower than that of the mesylate salt form (Example 1) ([2]; normal rats): 11.0% | Area under the plasma concentration curve lower than that of the mesylate salt form (Example 1) [3]: 50.4% | Maximum plasma concentration lower than that of the mesylate salt form (Example 1) [3]: 40.1%

C=CC(=O)Nc1cc(Nc2nccc(-n3cc(CN(C)C)c(-c4ccccc4)n3)n2)c(OC)cc1N1CCOCC1.CCS(=O)(=O)O [C. Ex. 4, Esilate Salt of N-(5-(4-(4-((dimethylamino)methyl)-3-phenyl-1H-pyrazol-1-yl)pyrimidine-2-ylamino)-4-methoxy-2-morpholinophenyl)acrylamide]
DSC onset ([4]; 2 weeks): 222, ° C. and 227 °C | Water content ([4]; 2 weeks): 1.37% | Appearance (color) ([4]; 4 weeks): Violet | DSC onset ([4]; 4 weeks): 172, ° C. and 193, ° C. and 219 °C | Water content ([4]; 4 weeks): 3.81% | Content ([4]; 2 weeks): 94.7% | Purity ([4]; 2 weeks): 99.0% | Content ([4]; 4 weeks): 89.5% | Purity ([4]; 4 weeks): 98.9% | Content ([4]; Start): 96.5% | Appearance (color) ([4]; Start): Yellow | DSC onset ([4]; Start): 223 °C | Water content ([4]; Start): 1.15% | Content Change [4]: −7% | Purity Change [4]: −0.6% | Water content Change [4]: +2.03% | DSC onset ([5]; 1 mo): 222 °C | Water content ([5]; 1 mo): 2.48% | Water content ([5]; 3 mos): 2.98% | DSC onset ([5]; 6 mos): 218 °C | Water content ([5]; 6 mos): 3.17% | Content ([5]; 1 mo): 96.1% | Purity ([5]; 1 mo): 99.1% | Content ([5]; 3 mos): 95.1% | Purity ([5]; 3 mos): 99.0% | Content ([5]; 6 mos): 91.4% | Purity ([5]; 6 mos): 98.4% | Purity ([5]; Start): 99.5% | Appearance (color) ([5]; Start): Y | Content Change [5]: −5.1% | Purity Change [5]: −1.1% | Water content Change [5]: +2.02%

C=CC(=O)Nc1cc(Nc2nccc(-n3cc(CN(C)C)c(-c4ccccc4)n3)n2)c(OC)cc1N1CCOCC1.O=C(O)CC(O)(CC(=O)O)C(=O)O [C. Ex. 3, Citrate Salt of N-(5-(4-(4-((dimethylamino)methyl)-3-phenyl-1H-pyrazol-1-yl)pyrimidine-2-ylamino)-4-methoxy-2-morpholinophenyl)acrylamide]
DSC onset ([4]; 2 weeks): 182 °C | Water content ([4]; 2 weeks): 0.62% | DSC onset ([4]; 4 weeks): 181 °C | Water content ([4]; 4 weeks): 1.47% | Content ([4]; 2 weeks): 98.9% | Purity ([4]; 2 weeks): 98.8% | Content ([4]; 4 weeks): 98.6% | Purity ([4]; 4 weeks): 98.7% | Content ([4]; Start): 100.0% | Purity ([4]; Start): 99.2% | DSC onset ([4]; Start): 182 °C | Water content ([4]; Start): 0.65% | Content Change [4]: −1.4% | Purity Change [4]: −0.5% | Water content Change [4]: +0.82% | Water content ([5]; 1 mo): 0.83% | DSC onset ([5]; 3 mos): 180 °C | Water content ([5]; 3 mos): 3.05% | DSC onset ([5]; 6 mos): 183 °C | Water content ([5]; 6 mos): 3.50% | Content ([5]; 1 mo): 100.5% | Purity ([5]; 1 mo): 98.9% | Content ([5]; 3 mos): 101.0% | Purity ([5]; 3 mos): 98.9% | Content ([5]; 6 mos): 98.7% | Purity ([5]; 6 mos): 97.7% | Content ([5]; Start): 100.0% | Purity ([5]; Start): 99.2% | Water content ([5]; Start): 0.65% | Content Change [5]: −1.3% | Purity Change [5]: −1.5% | Water content Change [5]: +2.85%

C=CC(=O)Nc1cc(Nc2nccc(-n3cc(CN(C)C)c(-c4ccccc4)n3)n2)c(OC)cc1N1CCOCC1 [Ex. 1, mesylate salt of N-(5-(4-(4-((dimethylamino)methyl)-3-phenyl-1H-pyrazol-1-yl)pyrimidine-2-ylamino)-4-methoxy-2-morpholinophenyl)acrylamide]
AUC(0-t) ([1]; male, SD, rat, plasma, po, 30 mg/kg, Rats treated with esomeprazole (i.v. 5 mg/2 mL/kg for 3 days), oral 30 mg/5 ml/kg, read-out: Area under the plasma concentration curve (AUClast)): 5210 ng·h/mL | Cmax ([1]; male, SD, rat, plasma, po, 30 mg/kg, Rats treated with esomeprazole (i.v. 5 mg/2 mL/kg for 3 days), oral 30 mg/5 ml/kg, read-out: Maximum plasma concentration (Cmax)): 428 ng/mL | AUC(0-t) ([2]; male, SD, rat, plasma, 30 mg/kg, Normal rats, oral 30 mg/5 ml/kg in 0.5% methylcellulose, read-out: Area under the plasma concentration curve (AUClast)): 8140 ng·h/mL | Cmax ([2]; male, SD, rat, plasma, 30 mg/kg, Normal rats, oral 30 mg/5 ml/kg in 0.5% methylcellulose, read-out: Maximum plasma concentration (Cmax)): 816 ng/mL | AUC(0-t) ([3]; male, dog, plasma, 5 mg/kg, oral 5 mg/2 mL/kg in 0.5% methylcellulose, read-out: Area under the plasma concentration curve (AUClast)): 812 ng·h/mL | Cmax ([3]; male, dog, plasma, 5 mg/kg, oral 5 mg/2 mL/kg in 0.5% methylcellulose, read-out: Maximum plasma concentration (Cmax)): 135 ng/mL | Stability (overall conclusion of the stability test) ([4]; stress and accelerated conditions together, purity, water content, PXRD pattern, appearance): excellent in stability | Appearance (color) ([4]; 2 weeks): White | DSC onset ([4]; 2 weeks): 214 °C | Water content ([4]; 2 weeks): 2.71% | Appearance (color) ([4]; 4 weeks): White | DSC onset ([4]; 4 weeks): 214 °C | Water content ([4]; 4 weeks): 2.70% | Content ([4]; 2 weeks): 97.7% | Purity ([4]; 2 weeks): 99.3% | Content ([4]; 4 weeks): 98.9% | Purity ([4]; 4 weeks): 99.3% | Content ([4]; Start): 98.8% | Purity ([4]; Start): 99.2% | Appearance (color) ([4]; Start): White | DSC onset ([4]; Start): 214 °C | Water content ([4]; Start): 2.48% | Content Change [4]: +0.1% | Purity Change [4]: +0.1% | Water content Change [4]: +0.22% | DSC onset ([5]; 1 mo): 214 °C | Water content ([5]; 1 mo): 2.73% | DSC onset ([5]; 3 mos): 214 °C | Water content ([5]; 3 mos): 3.19% | DSC onset ([5]; 6 mos): 214 °C | Water content ([5]; 6 mos): 3.01% | Content ([5]; 1 mo): 98.9% | Purity ([5]; 1 mo): 99.3% | Content ([5]; 3 mos): 98.9% | Purity ([5]; 3 mos): 99.3% | Content ([5]; 6 mos): 99.1% | Purity ([5]; 6 mos): 99.3% | Content ([5]; Start): 98.8% | Purity ([5]; Start): 99.2% | DSC onset ([5]; Start): 214 °C | Water content ([5]; Start): 2.48% | Content Change [5]: +0.3% | Purity Change [5]: +0.1% | Water content Change [5]: +0.53%

C=CC(=O)Nc1cc(Nc2nccc(-n3cc(CN(C)C)c(-c4ccccc4)n3)n2)c(OC)cc1N1CCOCC1.Cl [C. Ex. 2, Hydrochloride Salt of N-(5-(4-(4-((dimethylamino)methyl)-3-phenyl-1H-pyrazol-1-yl)pyrimidine-2-ylamino)-4-methoxy-2-morpholinophenyl)acrylamide]
DSC onset ([4]; 2 weeks): 269 °C | Water content ([4]; 2 weeks): 1.23% | DSC onset ([4]; 4 weeks): 269 °C | Water content ([4]; 4 weeks): 1.44% | Content ([4]; 2 weeks): 96.2% | Purity ([4]; 2 weeks): 99.1% | Content ([4]; 4 weeks): 95.2% | Purity ([4]; 4 weeks): 99.1% | Content ([4]; Start): 97.4% | Purity ([4]; Start): 99.0% | Appearance (color) ([4]; Start): Yellow | DSC onset ([4]; Start): 267 °C | Water content ([4]; Start): 0.86% | Content Change [4]: −2.2% | Purity Change [4]: +0.1% | Water content Change [4]: +0.58% | Appearance (color) ([5]; 1 mo): Y | DSC onset ([5]; 1 mo): 272 °C | Water content ([5]; 1 mo): 0.98% | Appearance (color) ([5]; 3 mos): Y | DSC onset ([5]; 3 mos): 271 °C | Water content ([5]; 3 mos): 1.47% | DSC onset ([5]; 6 mos): 271 °C | Water content ([5]; 6 mos): 1.28% | Content ([5]; 1 mo): 97.0% | Purity ([5]; 1 mo): 99.0% | Content ([5]; 3 mos): 98.3% | Purity ([5]; 3 mos): 98.9% | Content ([5]; 6 mos): 97.6% | Purity ([5]; 6 mos): 98.8% | Purity ([5]; Start): 99.0% | Appearance (color) ([5]; Start): Y | Water content ([5]; Start): 0.86% | Content Change [5]: +0.2% | Purity Change [5]: −0.2% | Water content Change [5]: +0.42%
